# Reference: PubChem BioAssay AID608 (Sanford-Burnham Center for Chemical Genomics, 2007)
# Active and inactive are the calls of the source. The rule behind the calls is not given here.
# Target: Peptidyl-prolyl cis-trans isomerase FKBP1A (Homo sapiens) (UniProt P62942)
# Assay: small-molecule binding to FKBP12 – biophysical, NMR detection (AID 608)
# Details: purified FKBP12
# Chain of Peptidyl-prolyl cis-trans isomerase FKBP1A (Homo sapiens) (P62942 whole entry, looked up): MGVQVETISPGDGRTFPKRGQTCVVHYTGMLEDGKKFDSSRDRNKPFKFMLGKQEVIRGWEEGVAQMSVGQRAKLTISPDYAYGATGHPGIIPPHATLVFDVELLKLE
row,Compound,Kd
1,COc1ccccc1-c1cn[nH]c(=S)n1,> 4 mM (inactive)
2,COc1nc(C)ccc1-c1noc(-c2ccncc2)n1,> 4 mM (inactive)
3,CN1CCC(NC(=O)c2c(F)cccc2Cl)CC1,> 4 mM (inactive)
4,CCCNC(=O)CSc1ncccc1C(=O)O,> 4 mM (inactive)
5,C(=N\c1ncn[nH]1)/c1cccs1,> 4 mM (inactive)
6,CNC(=O)N1CCN(C(=O)NC)CC1,> 4 mM (inactive)
7,CCOC(=O)c1csc(N)n1,> 4 mM (inactive)
8,O=C1NC(=S)N/C1=C/c1ccc(O)c(Cl)c1,> 4 mM (inactive)
9,COc1cnn(-c2ccccc2)c(=O)c1N(C)C,> 4 mM (inactive)
10,COC(=O)c1cc(C)on1,> 4 mM (inactive)
11,O=C(O)C1COc2ccccc2O1 (stereo not given),> 4 mM (inactive)
12,CCOc1ccc(NS(=O)(=O)N2CCOCC2)cc1,> 4 mM (inactive)
13,NC1=C([N+](=O)[O-])C(=O)c2ccccc21,> 4 mM (inactive)
14,COc1ccccc1NC(=O)/C=N/O,> 4 mM (inactive)
15,CC(C)c1ccc2c(c1O)CC[C@H]1C3=C(CC[C@]21C)C(=O)OC3,> 4 mM (inactive)
16,CCc1ccccc1NC(=O)c1cnccn1,> 4 mM (inactive)
17,Cc1nnsc1C(=O)Nc1ccc(C(N)=O)cc1,> 4 mM (inactive)
18,Cc1nnc(C)n1/N=C/c1cccs1,> 4 mM (inactive)
19,COc1cc(C(=S)N2CCCC2)cc(Cl)c1O,> 4 mM (inactive)
20,Cc1cc(N)on1,> 4 mM (inactive)
21,Cc1onc(-c2ccccc2)c1CO,> 4 mM (inactive)
22,CC1(C)C(=O)C=C[C@@]2(C)C1C[C@@H](O)[C@]1(C)C2CC[C@@]2(C)[C@H](c3ccoc3)OC(=O)[C@H]3O[C@]321 (stereo not given in full),> 4 mM (inactive)

row,Compound,Kd
1,Nc1nc(-c2ccccc2)ns1,> 4 mM (inactive)
2,Cc1[nH]ccc2c1[nH]c1cc(=O)ccc12,> 4 mM (inactive)
3,COC(=O)C1=CO[C@@H](O[C@@H]2O[C@H](CO)[C@@H](O)[C@H](O)[C@H]2O)[C@@H]2[C@@H](C)[C@@H](O)C[C@H]12,> 4 mM (inactive)
4,O=C1Nc2ccccc2C1(O)Cc1ccncc1 (stereo not given),> 4 mM (inactive)
5,CC(=O)c1cccc(NS(=O)(=O)N(C)C)c1,> 4 mM (inactive)
6,CC(=O)OC1CCC23C(=O)OC45CCC(C6=CC(=O)OC6)C4(C)CCC2C5CCC3(O)C1 (stereo not given),> 4 mM (inactive)
7,NS(=O)(=O)c1ccc(N2CCCC2=O)cc1,> 4 mM (inactive)
8,Nc1cc(=O)[nH]c(=S)n1CCc1ccccc1,> 4 mM (inactive)
9,C[C@]12CCC(=O)C=C1CCC1C2C(=O)C[C@@]2(C)C1CC[C@]2(O)C(=O)CO (stereo not given in full),> 4 mM (inactive)
10,Cc1ccc(NC(=O)C2CCN(S(C)(=O)=O)CC2)cc1,> 4 mM (inactive)
11,CCOc1nc(C)ccc1-c1noc(-c2ccco2)n1,> 4 mM (inactive)
12,COc1cc([C@@H]2c3cc4c(cc3[C@H](O)[C@H]3COC(=O)[C@H]23)OCO4)cc(OC)c1OC,> 4 mM (inactive)
13,CC1(C)Cc2nc(N3CCOCC3)c(C#N)cc2CO1,> 4 mM (inactive)
14,COc1ccc(N2CC(=O)NC2=O)cc1,> 4 mM (inactive)
15,Cc1nc2ccc(NC(=O)N3CCSCC3)cc2s1,> 4 mM (inactive)
16,N/N=C/c1cccnc1,> 4 mM (inactive)
17,CC(=O)CC1CCCCN1 (stereo not given),> 4 mM (inactive)
18,NC(=O)C1CCN(CC2CC=CCC2)CC1 (stereo not given),> 4 mM (inactive)
19,O=C(Cn1cncn1)c1ccc(F)c(F)c1,> 4 mM (inactive)
20,O=C(O)CSCc1ccc(Cl)cc1,> 4 mM (inactive)
21,COc1cc(OC)c(OC)cc1C=O,> 4 mM (inactive)
22,O=C1C=C(Nc2ccccc2O)c2ccccc2C1=O,> 4 mM (inactive)

row,Compound,Kd
1,CC(=O)Nc1cccc(N2CCCC2=O)c1,> 4 mM (inactive)
2,N#CCCn1ccnc1-c1ccccc1,> 4 mM (inactive)
3,Cc1ccc(N2NC(=O)CC2=O)cc1C,> 4 mM (inactive)
4,O=C(c1ccc(F)cc1)N1CCN(c2ncccn2)CC1,> 4 mM (inactive)
5,CSc1ccccc1NC(=O)c1cccnc1,> 4 mM (inactive)
6,Nc1ccccc1OC(F)(F)F,> 4 mM (inactive)
7,O=C1C(=O)N(CN2CCN(CCO)CC2)c2ccccc21,> 4 mM (inactive)
8,COc1cc(CNCCc2ccc(S(N)(=O)=O)cc2)ccc1OCC(=O)N1CCOCC1,> 4 mM (inactive)
9,COC(=O)[C@@H]1OC(=O)C2OC23[C@@]1(C)CCC1[C@@]2(C)CCC(=O)C(C)(C)C2C[C@@H](OC(C)=O)[C@]13C (stereo not given in full),> 4 mM (inactive)
10,CC(CC(=O)O)n1cccn1 (stereo not given),> 4 mM (inactive)
11,OCC(O)Cc1ccc2c(c1)OCO2 (stereo not given),> 4 mM (inactive)
12,O=C1NC2NC(=O)N(c3ccccc3)C2N1 (stereo not given),> 4 mM (inactive)
13,Cc1nc2cc(NC(=O)Nc3nccs3)ccc2n1C,> 4 mM (inactive)
14,NS(=O)(=O)c1ccc(NC(=O)C2CC2)cc1,> 4 mM (inactive)
15,Cc1cc(SCC(=O)c2ccccc2)nc(=O)[nH]1,> 4 mM (inactive)
16,c1ccc(-c2nsc(N3CCNCC3)n2)cc1,> 4 mM (inactive)
17,OCCN1CCN(C(=S)c2ccc(Cl)cc2)CC1,> 4 mM (inactive)
18,O=C(NCc1cccs1)c1ccc2c(c1)OCCO2,> 4 mM (inactive)
19,C[C@@H]1[C@H]2[C@H](O[C@@H]3O[C@H](CO)[C@@H](O)[C@H](O)[C@H]3O)OC=C(C(=O)O)[C@H]2C[C@@H]1O,> 4 mM (inactive)
20,COc1cccc(NC(=O)c2ncn[nH]2)c1,> 4 mM (inactive)
21,COc1cc(O)c(C(=O)c2ccccc2)cc1O,> 4 mM (inactive)
22,O=C(Nc1ccc2c(c1)OCO2)c1ccc(=O)[nH]n1,> 4 mM (inactive)

row,Compound,Kd
1,Cc1cccc(-c2nnc(-c3ccc(N)cc3)o2)c1,> 4 mM (inactive)
2,O=C(Nc1ccc2c(c1)OCCO2)c1ccncc1,> 4 mM (inactive)
3,COc1cc(-c2coc3cc(OC)c(OC)c(OC)c3c2=O)cc(OC)c1OC,> 4 mM (inactive)
4,CC(C)=CC(=O)Nc1ccccc1C(N)=O,> 4 mM (inactive)
5,NCCc1nc2ccccc2[nH]1,> 4 mM (inactive)
6,O=C(c1nc2ncccn2n1)N1CCc2ccccc2C1,> 4 mM (inactive)
7,CCCS(=O)(=O)N1CCN(c2ccccn2)CC1,> 4 mM (inactive)
8,CC1=CC(=O)NC2C=CC=CC12 (stereo not given),> 4 mM (inactive)
9,CC(=O)O[C@H]1CC[C@@]2(C)C(CC[C@]3(C)C2C(=O)C=C2C4[C@@H](C)[C@H](C)CC[C@]4(C(=O)O)CC[C@]23C)C1(C)C (stereo not given in full),> 4 mM (inactive)
10,COc1ccc2c(Cl)c(C(=O)N3CCOCC3)sc2c1Cl,inactive
11,O=C(O)c1ccc2nsnc2c1,> 4 mM (inactive)
12,COC(=O)c1scc(C)c1N,> 4 mM (inactive)
13,CS(=O)(=O)c1ccc(N)cc1,> 4 mM (inactive)
14,NC(=O)COc1cccc2cccnc12,> 4 mM (inactive)
15,OCc1c[nH]c2ccccc12,> 4 mM (inactive)
16,Cc1cc(OC(=O)c2ccco2)c([N+](=O)[O-])c(=O)[nH]1,> 4 mM (inactive)
17,Cc1cc(C(=O)Nc2ccon2)cs1,> 4 mM (inactive)
18,CN(C)c1ccc(/C=C2/NC(=S)NC2=O)cc1,> 4 mM (inactive)
19,O=S1(=O)NC(=NCc2ccccc2)c2ccccc21,> 4 mM (inactive)
